# In PMC11056991, “Promising Anticancer Prodrugs Based on Pt(IV) Complexes with Bis-organosilane Ligands in Axial Positions” (Journal of Medicinal Chemistry, 2024):
# Like-named read-outs stand apart in the source and are kept apart here.
# Columns and labels:
# [1] = system: HT-29 human colon cancer cells; details: MTT, Figure S14E
# Procedure: Cells were maintained at 37 °C in a humidified atmosphere containing 5% CO2.
# [2] = system: HCT 116 cancer cells; details: data not shown
# Procedure: Cell were trypsinized, centrifuged at 500g for 5 min, resuspended in PBS, and stained with 7-aminoactinomycin D (7AAD, Santa Cruz Biotechnology), a DNA intercalating dye excluded from viable cells due to membrane impermeability. The 7AAD was excited at 546 nm and analyzed at 656 nm. Only apoptotic and necrotic cells are stained by these dyes. After incubation for 50 min in the dark at 37 °C, the cells were analyzed by flow cytometry (CytoFlex, Beckman Coulter). The percentages of cells stained with or without dyes were analyzed using the CytExpert Software (Beckman Coulter).
# [3] = system: HCT 116 cells; assay: Trypan blue exclusion test; type: cell-based, human; details: HCT 116, 0.5 μM, 2 days
# Procedure: HCT 116 cells were harvested by trypsinization followed by centrifugation at 500g for 5 min. The cell pellet was resuspended in 1 mL of PBS. Equal volumes of trypan blue (Bio-Rad cat. no. 1450021) 0.4% and cell suspension were mixed and incubated for 1–3 min at room temperature, and cell counting was carried out using a TC20 Automated Cell Counter (Bio-Rad cat. no. 1450102). The percentage of viable cells was calculated by dividing the number of viable cells per milliliter by the number total of cells per milliliter) × 100. Representative images were acquired using a Zeis light microscope with a 20× objective.
# [4] = Stability in DMEM by 195Pt NMR; type: physicochemical; details: DMSO-d6/DMEM 1:4, 37 °C, 0, 24, 48, 120 h
# Excerpt: We then decided to evaluate the stability of the two Pt(IV) complexes in the medium (DMEM) used to carry out the in vitro experiments, monitoring their kinetics by ^195Pt NMR at different times to evaluate the possible species formed over time. DMEM is supplemented with proteins and other molecules essential for cell growth (Experimental Section). Thus, similar to the reduction assays, we analyzed the Pt(II)/Pt(IV) region where the expected species appear. […] Both Pt(IV)/Pt(II) signals disappeared after 48 h, most likely again because of the binding of the complex to the proteins.
# To each solution was then slowly and carefully added 300 μL of DMEM to avoid the precipitation of the complex, reaching a final concentration of 1:4 (DMSO-d6/DMEM). All these mixtures were performed using a thermoshaker. Each sample was monitored by ^195Pt NMR at 0, 24, 48, and 120 h.
# [5] = system: HCT 116 human colon cancer cells; assay: MTT cell viability assay, HCT 116; type: cell-based; details: for IC50: 48 h
# Procedure: (§2) HIEC6 human healthy intestinal cells and HCT 116 and HT-29 human colon cancer cells were supplied by ATCC. Colon cancer cells were cultured in Dulbecco’s modified Eagle’s medium (DMEM) for HCT 116 and HT-29 supplemented with fetal bovine serum (10%). HIEC6 cells were cultured in Opti-MEM supplemented with fetal bovine serum (4%), HEPES (20 mM), glutamine (10 mM), and epidermal growth factor (10 ng/mL). Cells were maintained at 37 °C in a humidified atmosphere containing 5% CO2. Cells were seeded at 30% confluence in DMEM for HCT 116 and in Opti-MEM for HIEC6; after cell adhesion, HIEC6 cells were cultured in DMEM for 24h before being treated. All cells were treated with the indicated components at concentrations of 0.25–50 μM and incubated for 1–5 days as specified.
# (§3) The MTT assay relies on a colorimetric reaction based on the capacity of living cells to reduce MTT to formazan and change the color to purple, which is easily measured by colorimetry. This assay estimates the cellular viability after the indicated treatments. Cells were treated with MTT (1:10 in culture medium) and incubated at 37 °C for 3 h for HCT 116 and HT-29 or 6 h for HIEC6. After removal of the medium, the formazan was resuspended in DMSO, transferred to p96 plates, and analyzed by a SpectraFLUOR (Tecan) at 542 nm. In all cases, viability was measured in duplicates of each point in three independent experiments.
# [6] = system: HCT 116 colon carcinoma subcutaneous tumors; assay: Subcutaneous HCT 116 tumor model in nude mice; type: in vivo, athymic nude Foxn1nu mice
# Excerpt: Tumor growth was monitored until tumors in the control group reached the ethically allowed size. […] On the other hand, many types of cancer cause a general increase in lactate dehydrogenase (LDH), and it is considered a nonspecific tumor marker.[57]
# (§1) To establish the subcutaneous tumor, 2 × 10^6 HCT 116 colon carcinoma cells were resuspended 1:1 in culture media and Matrigel (BD) and injected subcutaneously. Six to eight week old female athymic nude Foxn1nu mice (Harlan Iberica) were used for each point. […] Two therapeutic approaches were compared: acute and chronic (see diagram in Figure 5). Acute treatment was performed (three injections of 10 mg/kg); chronic treatment relied on injections of 1 mg/kg every 3–4 days. […] Tumor growth was monitored by personnel unaware of the group distribution. Experiments were finalized when control animals achieved the maximum tumor size approved by the Ethical Committee. Animals were sacrificed by euthanasia by CO2 inhalation. Selected organs were collected from each animal for histopathological analysis. Samples were fixed in 4% paraformaldehyde for 2 h followed by cold 70% ethanol. Plasma serum was collected to determine hepatic and renal toxicity of treatments using a SPIN200E automatic bioanalyzer (Spinreact).
# [7] = system: histone gH2Ax foci at double-strand DNA breaks in HCT 116 cells; assay: Immunofluorescence of histone gH2Ax DNA damage foci; type: cell-based, human; details: HCT 116, 0.5 μM, 48 h
# Procedure: Confocal imaging of the DNA damage response was followed by immunofluorescence of histone gH2Ax foci at double-strand DNA breaks (DSB) (Figure 4A). […] However, none of the Pt(IV) prodrugs were able to increase p53 levels even at concentrations higher than those needed to reduce cell viability.
# Cells in coverslips were washed three times and fixed with 4% paraformaldehyde in PBS (pH 7.4) for 10 min, washed again, permeabilized (PBS [pH7.4], 0.5% Triton X-100, 0.2% BSA) for 5 min, blocked (PBS [pH7,4], 0,05% Triton X-100, 5% BSA) for 1 h at room temperature, and incubated with primary antibody overnight at 4 °C. After three washes (5 min), cells were incubated with secondary antibody for 1 h at room temperature, and the nuclei were stained with 4,6-diamidino-2-phenylindole (DAPI, 1:10,000, Invitrogen) for 10 min. Slides were mounted, and images were acquired using an FV3000 confocal microscope (Olympus) with a 63× objective. The antibodies rabbit monoclonal anti-Histone H2A.X (D17A3) (dilution 1:400) and mouse monoclonal anti-Lamin A/C (4C11) (dilution 1:400) were purchased from Cell Signaling (Danvers, Massachusetts, USA). Donkey Anti-Rabbit-Alexa Fluor 488 (dilution 1:500) and Donkey Anti-Mouse-Alexa Fluor 594 (dilution 1:500) were purchased from Invitrogen (Barcelona, Spain).
# [8] = system: HIEC6 human healthy intestinal cells; assay: MTT cell viability assay, HIEC6; type: cell-based; details: for IC50: 48 h
# Procedure: as §2, §3
# [9] = In vivo toxicity and tolerance in tumor-bearing mice; parameters: species or system athymic nude Foxn1nu mice
# Excerpt: The in vitro results encouraged us to explore the translational potential in a preclinical in vivo model of nude mice with grafted tumor cells. […] Tumor growth was monitored until tumors in the control group reached the ethically allowed size. […] On the other hand, many types of cancer cause a general increase in lactate dehydrogenase (LDH), and it is considered a nonspecific tumor marker.[57] Both treatments reduced LDH levels compared to those of untreated animals (PBS), reflecting the response to treatment.
# as §1
# [10] = MTT, 5 uM, 2 days, (final complexes, Figure 3B)
# [11] = MTT, second (last) column of this head
# [12] = mice after treatment, versus cisplatin
structure (smiles),measurement,setting,value
"CC(C)N.CC(C)N.CCO[Si](CCCNC(=O)[O][Pt]([Cl])([Cl])[O]C(=O)NCCC[Si](OCC)(OCC)OCC)(OCC)OCC [Pt(IV)-biSi-2, cis-Dichloro(diisopropylamine)-trans-[3-(triethoxysilyl)propylcarbamate]platinum(IV)]",Cytotoxic effect on colon cancer cells (HT-29),[1],strong cytotoxic effect
same,"Cytotoxicity by flow cytometry, HCT 116",[2],stronger effect
same,Reduction of viability by trypan blue staining,[3],approximately 60%
same,Stability in DMEM (Pt(IV) signal in 195Pt NMR),[4],suffered a marked decrease after 24 h
same,"Fold greater cytotoxicity than cisplatin, HCT 116","[5]; 5 μM, 5 days chronic treatment",8–10 fold
same,"Cell viability, HCT 116 0.5uM 2 days","[5]; MTT, 0.5 uM, 2 days",49.4 ± 3.2%
same,Reduction of viability (cytotoxicity) of HCT 116 tumor cells,"[5]; MTT, 0.5 μM, 2 days",50%
same,"Cell viability, HCT 116 0.5uM 5 days","[5]; MTT, 0.5 uM, 5 days",60.2 ± 14.4%
same,Reduction of tumor cell viability (HCT 116),"[5]; MTT, 0.5 μM, 5 days",40%
same,Reduction in viability of cancer cells (HCT 116),"[5]; MTT, 5 μM, 2 days",90%
same,"Cell viability, HCT 116 5uM 2 days",[5]; [10],4.4 ± 0.8%
same,"Cells survived, HCT 116","[5]; MTT, 5 μM, 5 days chronic treatment",5%
same,IC50,"[5]; MTT, Figure 3C and text, read-out: IC50 (μM), HCT 116",0.94 µM
same,IC50,"[5]; MTT, supplementary CSV, read-out: IC50 (uM) HCT 116",0.9 ± 0.6 µM
same,"Cell viability, HCT 116 […] 2 days","[5]; MTT, 2 days",59.6 ± 2.9%
same,"Cell viability, HCT 116 […] 2 days",[5]; [11],59.1 ± 0.8%
same,Tumor volume versus control (PBS),"[6]; i.p., acute and chronic treatments",significantly reduced tumor volume
same,Tumor growth compared with cisplatin,"[6]; i.p., acute and chronic treatments, Pt concentration one-third that of cisplatin",reduced tumor growth more than cisplatin
same,LDH levels (tumor marker),"[6]; serum, versus cisplatin treatment",reduced LDH levels significantly more
same,Unresolved DSB / histone H2Ax foci,[7],foci were retained at 48 h
same,Fold higher concentration needed to reduce nontumorigenic intestinal cell viability by 50%,[8]; IC50 HIEC6 versus IC50 HCT 116,3.7 fold
same,"Cell viability, HIEC6 0.5uM 2 days","[8]; MTT, 0.5 uM, 2 days",92.5 ± 0.9%
same,"Cell viability, HIEC6 0.5uM 5 days","[8]; MTT, 0.5 uM, 5 days",84.1 ± 4.7%
same,Reduction in viability of healthy cells (HIEC6),"[8]; MTT, 5 μM, 2 days",60%
same,"Cell viability, HIEC6 5uM 2 days",[8]; [10],41.2 ± 1.5%
same,IC50,"[8]; MTT, Figure 3C and text, read-out: IC50 (μM), HIEC6",3.47 µM
same,IC50,"[8]; MTT, supplementary CSV, read-out: IC50 (uM) HIEC6",3.5 ± 0.6 µM
same,"Cell viability, HIEC6 […] 2 days","[8]; MTT, 2 days",97.8 ± 4.0%
same,"Cell viability, HIEC6 […] 2 days",[8]; [11],98.8 ± 6.1%
same,Side effects (weight loss greater than 5% or abnormal postures) or deaths,[9]; acute and chronic treatment,No side effects (weight loss greater than 5% or abnormal postures) or deaths of the mice were observed
same,Hepatic toxicity (uric acid and GPT levels in plasma),[9]; [12],significantly lower
same,Renal toxicity (creatinine levels in plasma),[9]; [12],significantly lower
